According to publication PMC8300687, “A Fine-Tuned Lipophilicity/Hydrophilicity Ratio Governs Antibacterial Potency and Selectivity of Bifurcated Halogen Bond-Forming NBTIs” (Antibiotics, 2021):
≈ marks a conversion by molar mass, not a printed value. Read-outs that look alike come from different tables or passages of the source.

What was measured:
[1] = tested on: S. aureus (ATCC 29213); experiment: MIC broth microdilution, S. aureus ATCC 29213; type: cell-based
Method: (§1) Antimicrobial testing was carried out by the broth microdilution method in 96-well plate format following the Clinical and Laboratory Standards Institute (CLSI) guidelines and European Committee on Antimicrobial Susceptibility Testing (EUCAST) recommendations. Bacterial suspension of specific bacterial strain equivalent to 0.5 McFarland turbidity standard was diluted with cation-adjusted Mueller Hinton broth with TES (Thermo Fisher Diagnostic, Landsmeer, The Netherlands), to obtain a final inoculum of 10^5 CFU/mL. Compounds dissolved in DMSO and inoculum were mixed together and incubated for 18–20 h at 35 °C. Suspensions of Mycobacterium sp. were prepared into a tube of Middelbrook 7H9 broth supplemented with 5% OADC (Thermo Scientific, Trek Diagnostic Systems, West Sussex, UK) and incubated for at least 10 days. After incubation the minimal inhibitory concentration (MIC) values were determined by visual inspection as the lowest dilution of compounds showing no turbidity. Tetracycline was used as a positive control on every assay plate.

[2] = biological target: T1, Human topoisomerase IIα (Homo sapiens, UniProt P11388); experiment: Human topoisomerase II Alpha Relaxation High Throughput Plate assay; type: biochemical; conditions: 0.5 h; residual activity of the enzyme at compound concentration 10 μM, mean ± SD; read-out: Human Topo II (% RA)
T1 construct: purchased Inspiralis (Norwich, UK)
T1 sequence (P11388 whole entry): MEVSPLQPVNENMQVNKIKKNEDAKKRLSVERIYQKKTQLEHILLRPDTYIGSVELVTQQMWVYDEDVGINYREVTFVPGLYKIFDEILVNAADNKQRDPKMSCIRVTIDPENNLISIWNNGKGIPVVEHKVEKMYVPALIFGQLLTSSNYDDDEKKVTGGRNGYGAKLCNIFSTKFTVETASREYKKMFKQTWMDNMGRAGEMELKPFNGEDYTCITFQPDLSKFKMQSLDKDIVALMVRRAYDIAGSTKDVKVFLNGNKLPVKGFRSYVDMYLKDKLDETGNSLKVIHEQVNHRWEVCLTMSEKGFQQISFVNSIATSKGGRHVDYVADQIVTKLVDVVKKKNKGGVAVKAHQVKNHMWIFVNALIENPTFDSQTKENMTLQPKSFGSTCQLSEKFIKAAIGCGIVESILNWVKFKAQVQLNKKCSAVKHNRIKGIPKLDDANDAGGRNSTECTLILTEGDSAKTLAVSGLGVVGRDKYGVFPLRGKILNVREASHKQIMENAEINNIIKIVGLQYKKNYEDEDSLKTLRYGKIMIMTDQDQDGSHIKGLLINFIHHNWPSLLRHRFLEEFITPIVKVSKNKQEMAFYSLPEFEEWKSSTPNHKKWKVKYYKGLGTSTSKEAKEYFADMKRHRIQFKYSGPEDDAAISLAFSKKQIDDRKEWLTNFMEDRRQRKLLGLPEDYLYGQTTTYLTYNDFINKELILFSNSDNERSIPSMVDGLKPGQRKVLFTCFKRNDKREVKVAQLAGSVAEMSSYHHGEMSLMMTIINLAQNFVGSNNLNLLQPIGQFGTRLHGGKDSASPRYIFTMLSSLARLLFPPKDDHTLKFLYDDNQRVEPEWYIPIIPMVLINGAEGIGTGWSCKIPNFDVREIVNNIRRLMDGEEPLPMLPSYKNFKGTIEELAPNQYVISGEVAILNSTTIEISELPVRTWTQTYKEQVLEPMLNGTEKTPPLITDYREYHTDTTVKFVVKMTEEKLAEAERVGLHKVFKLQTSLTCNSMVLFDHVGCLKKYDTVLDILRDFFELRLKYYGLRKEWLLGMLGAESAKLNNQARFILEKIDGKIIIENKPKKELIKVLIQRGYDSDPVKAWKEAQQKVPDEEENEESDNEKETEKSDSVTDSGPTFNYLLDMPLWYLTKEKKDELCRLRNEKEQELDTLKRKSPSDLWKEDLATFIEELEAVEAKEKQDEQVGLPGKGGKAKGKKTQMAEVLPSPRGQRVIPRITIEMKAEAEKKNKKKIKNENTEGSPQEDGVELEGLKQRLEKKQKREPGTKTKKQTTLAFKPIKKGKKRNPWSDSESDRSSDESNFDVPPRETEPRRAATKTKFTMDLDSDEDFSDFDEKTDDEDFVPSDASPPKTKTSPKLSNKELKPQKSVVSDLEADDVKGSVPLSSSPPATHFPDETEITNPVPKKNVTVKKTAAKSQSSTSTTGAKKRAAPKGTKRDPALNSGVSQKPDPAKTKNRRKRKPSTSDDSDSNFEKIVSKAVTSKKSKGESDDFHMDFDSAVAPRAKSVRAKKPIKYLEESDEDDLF
Method: A Human topoisomerase II Alpha Relaxation High Throughput Plate assay kit, purchased from Inspiralis (Norwich, UK) was used to evaluate the selectivity of compounds for the bacterial enzymes over the homologous human topoisomerase II. […] Biotinylated oligonucleotide in wash buffer was immobilized onto the wells and the excess oligonucleotide was washed off with wash buffer. […] The reactions were stopped by adding the TF buffer (50 mM NaOAc (pH 4.7), 50 mM NaCl, and 50 mM MgCl2) to allow the triplex formation (biotin-oligonucleotide-plasmid) for additional 30 min. Afterward, the unbound plasmid was washed off using TF buffer, and the solution of Promega Diamond dye in T10 buffer (10 mM Tris-HCl (pH 8.0), 1 mM EDTA) was added. […] Screening was performed at inhibitor concentrations of 10 μM. Raw data were converted to mean ± SD percentage of residual activity of the enzyme obtained by two independent measurements.

[3] = tested on: M. smegmatis; experiment: MIC, M. smegmatis; type: cell-based, Mycobacterium smegmatis; conditions: Mycolicibacterium smegmatis; read-out: MIC M. smegmatis
Method: as §1

[4] = tested on: MRSA (QA-11.2); experiment: MIC broth microdilution, MRSA QA-11.2; type: cell-based, methicillin-resistant S. aureus; conditions: Staphylococcus aureus, 20 h, read-out: MIC MRSA (QA-11.2)
Method: as §1

[5] = tested on: E. coli (QA-11.3); experiment: MIC broth microdilution, E. coli QA-11.3; type: cell-based
Method: as §1

[6] = tested on: MRSA; experiment: MIC broth microdilution, MRSA; type: cell-based, methicillin-resistant S. aureus; conditions: Staphylococcus aureus, read-out: MIC MRSA
Method: as §1

[7] = tested on: MRSA (QA-11.7); experiment: MIC broth microdilution, MRSA QA-11.7; type: cell-based, methicillin-resistant S. aureus; conditions: Staphylococcus aureus, 20 h, read-out: MIC MRSA (QA-11.7)
Method: as §1

[8] = tested on: E. coli (QA-11.7); experiment: MIC broth microdilution, E. coli QA-11.7; type: cell-based; conditions: Escherichia coli, 20 h, read-out: MIC E. coli (QA-11.7)
Method: as §1

[9] = tested on: MRSA (QA-11.6); experiment: MIC broth microdilution, MRSA QA-11.6; type: cell-based, methicillin-resistant S. aureus; conditions: Staphylococcus aureus, read-out: MIC MRSA (QA-11.6)
Method: as §1

[10] = Equilibrium solubility at pH 6.8; conditions: for solubility thermodynamic at 24 h: phosphate buffered saline, 37 °C, pH 6.8, aqueous buffer, thermodynamic from solid; for solubility at pH 6.8 in words: pH 6.8, single-dose in 500 mL
Method: Prior to the measurements of solubility and permeability isocratic HPLC methods were developed. […] The individual method parameters for each compound are given in the Supplementary Materials Table S1.
The vials were then placed in a homogenizer (Next Advance Bullet Blender, Troy, NY, USA) for 5 min ad speed setting “2” after which they were kept in a thermostated shaker (Tehtnica HeatMix, Domel, Slovenia) at 37 °C and 1200 RPM for 24 h. […] Twenty µL of these solutions were injected for the HPLC analysis by the described methods (Supplementary Materials Table S1). External standards for calibration were made in a mobile phase with 5% acetonitrile in a range of 30–90 mg/L and injected at 20 µL injection volumes.

[11] = tested on: A. baumannii 8C6 (GES-14); experiment: MIC broth microdilution, A. baumannii; type: cell-based
Method: as §1

[12] = tested on: E. coli D22; experiment: MIC broth microdilution, E. coli D22; type: cell-based; conditions: Escherichia coli
Method: as §1

[13] = tested on: C. jejuni RDK 135 (ATCC 33560); experiment: MIC broth microdilution, C. jejuni; type: cell-based
Method: as §1

[14] = biological target: T2, E. coli DNA gyrase (Escherichia coli, UniProt P0AES4); experiment: Gyrase Supercoiling High Throughput Plate assay, E. coli; type: biochemical; conditions: for LE DNA Gyrase E. coli: LE = (1.37/HA) × pIC50
T2 construct: purchased Inspiralis (Norwich, UK)
T2 sequence (P0AES4 whole entry): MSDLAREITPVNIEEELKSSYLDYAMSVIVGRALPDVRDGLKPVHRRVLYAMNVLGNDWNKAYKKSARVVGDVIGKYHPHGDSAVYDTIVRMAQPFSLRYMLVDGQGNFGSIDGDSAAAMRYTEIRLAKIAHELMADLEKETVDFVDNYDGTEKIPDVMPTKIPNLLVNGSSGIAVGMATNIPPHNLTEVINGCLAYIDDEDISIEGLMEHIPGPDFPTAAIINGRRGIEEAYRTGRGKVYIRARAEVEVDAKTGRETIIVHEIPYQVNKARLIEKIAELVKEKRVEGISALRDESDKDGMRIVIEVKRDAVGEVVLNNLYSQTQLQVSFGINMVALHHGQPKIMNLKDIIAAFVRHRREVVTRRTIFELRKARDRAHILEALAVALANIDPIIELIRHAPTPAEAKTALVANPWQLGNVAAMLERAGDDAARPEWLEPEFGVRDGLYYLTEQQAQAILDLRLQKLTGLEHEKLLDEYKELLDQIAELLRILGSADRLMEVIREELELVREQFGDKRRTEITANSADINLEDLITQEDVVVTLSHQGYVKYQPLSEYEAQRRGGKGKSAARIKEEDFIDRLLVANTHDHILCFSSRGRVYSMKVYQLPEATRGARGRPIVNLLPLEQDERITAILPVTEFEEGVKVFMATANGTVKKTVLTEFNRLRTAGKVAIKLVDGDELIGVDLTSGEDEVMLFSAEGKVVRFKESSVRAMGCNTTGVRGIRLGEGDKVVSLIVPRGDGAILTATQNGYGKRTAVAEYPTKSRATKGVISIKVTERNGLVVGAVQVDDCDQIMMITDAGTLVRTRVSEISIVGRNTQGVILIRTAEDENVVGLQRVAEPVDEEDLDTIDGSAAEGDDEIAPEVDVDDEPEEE
Method: A Gyrase Supercoiling High Throughput Plate assay kit, purchased from Inspiralis (Norwich. UK) was used to determine IC50 values of compounds on S. aureus and E. coli. […] Biotinylated oligonucleotide in wash buffer was immobilized onto the wells, and the excess oligonucleotide was washed off with wash buffer and ultrapure water. […] The reactions were stopped by adding the TF buffer (50 mM NaOAc (pH 4.7), 50 mM NaCl, and 50 mM MgCl2) to allow the triplex formation (biotin-oligonucleotide-plasmid) for additional 30 min. Afterward, the unbound plasmid was washed off using TF buffer, and the solution of Promega Diamond dye in T10 buffer (10 mM Tris-HCl (pH 8.0), 1 mM EDTA) was added. […] IC50 value represents the mean of two to four independent measurements.

[15] = Staphylococcus aureus, ATCC29213, read-out: MIC S. aureus (ATCC 29213)
[16] = Escherichia coli, 20 h, read-out: MIC E. coli (QA-11.3)
[17] = Acinetobacter baumannii, read-out: MIC A. baumannii 8C6 (GES-14)
[18] = Campylobacter jejuni, ATCC33560, read-out: MIC C. jejuni RDK 135 (ATCC 33560)
[19] = Staphylococcus aureus, ATCC29213; S. aureus ATCC 29213; read-out: S. aureus MIC (converted)
[20] = Staphylococcus aureus, ATCC29213; read-out: MIC S. aureus (ATCC 29213)
[21] = resistant to cefoxitin, chloramphenicol, clindamycin, linezolid, tetracycline, thiamulin, trimethoprim
[22] = Escherichia coli, 20 h; read-out: MIC E. coli (QA-11.3)
[23] = multi-resistant isolate (ampicillin, azithromycin, cefotaxime, ertapenem, imipenem and others)
[24] = resistant to cefoxitin, gentamicin, sulfamethoxazole, tetracycline
[25] = Acinetobacter baumannii; read-out: MIC A. baumannii 8C6 (GES-14)
[26] = D22, mutation in the lpxC gene that increases membrane permeability, read-out: MIC E. coli D22
[27] = Campylobacter jejuni, ATCC33560; read-out: MIC C. jejuni RDK 135 (ATCC 33560)

SMILES	MIC [1, 15]	remaining activity at 10 µM [2]	MIC [3]	MIC [4]	MIC [5, 16]	MIC [6]	MIC [7]	MIC [8]	solubility thermodynamic at 24 h [10]	IC50 [14]	MIC [1, 19]	MIC [1, 20]	MIC [4, 21]	MIC [5, 22]	MIC [8, 23]	MIC [9, 24]	MIC [11, 25]	MIC [12, 26]	MIC [13, 27]	LE DNA Gyrase E. coli [14]	further results
COc1ccc2nccc(CCN3CCC(NCc4c(C)nc5c(C)cccn45)CC3)c2n1 [Compound 6, N-((2,8-Dimethylimidazo[1,2-a]pyridin-3-yl)methyl)-1-(2-(6-methoxy-1,5-naphthyridin-4-yl)ethyl)piperidin-4-amine]	> 128 µg/mL	99.4 ± 9.93%	64 µg/mL (≈ 144 µM)	> 128 µg/mL	128 µg/mL (≈ 288 µM)	> 128 µg/mL	> 128 µg/mL	> 128 µg/mL	797 µg/mL (≈ 1790 µM)	> 100 µM											MIC ([1]; Staphylococcus aureus, ATCC29213, read-out: S. aureus MIC in molar): 288 µM; MIC [9]: > 128 µg/mL; MIC [11, 17]: > 128 µg/mL; MIC ([12]; D22, read-out: MIC E. coli D22): > 128 µg/mL; MIC [13, 18]: > 128 µg/mL
COc1ccc2nccc(CCN3CCC(NC(=O)c4cn5cccc(C#N)c5n4)CC3)c2n1 [Compound 7, 8-Cyano-N-(1-(2-(6-methoxy-1,5-naphthyridin-4-yl)ethyl)piperidin-4-yl)imidazo[1,2-a]pyridine-2-carboxamide]	> 128 µg/mL	90.3 ± 7.56%	16 µg/mL (≈ 35.1 µM)	> 128 µg/mL	> 128 µg/mL	> 128 µg/mL	> 128 µg/mL	> 128 µg/mL	883 µg/mL (≈ 1940 µM)	> 100 µM	281 µM										MIC [9]: > 128 µg/mL; MIC [11, 17]: > 128 µg/mL; MIC ([12]; D22, read-out: MIC E. coli D22): > 128 µg/mL; MIC [13, 18]: > 128 µg/mL
COc1ccc2nccc(CCN3CCC(NCc4cnn(-c5ccccc5)n4)CC3)c2n1 [Compound 8, 1-(2-(6-Methoxy-1,5-naphthyridin-4-yl)ethyl)-N-((2-phenyl-2H-1,2,3-triazol-4-yl)methyl)piperidin-4-amine]		94.2 ± 2.9%	0.5 µg/mL (≈ 1.13 µM)			0.5 µg/mL (≈ 1.13 µM)	0.5 µg/mL (≈ 1.13 µM)		106 µg/mL (≈ 239 µM)	7.83 ± 0.55 µM	1.13 µM	0.5 µg/mL	0.5 µg/mL (≈ 1.13 µM)	32 µg/mL (≈ 72.1 µM)	4 µg/mL (≈ 9.02 µM)	0.5 µg/mL (≈ 1.13 µM)	32 µg/mL (≈ 72.1 µM)	32 µg/mL (≈ 72.1 µM)	4 µg/mL (≈ 9.02 µM)	0.21	
COc1ccc2nccc(CCN3CCC(NCc4cnn(C(C)C)c4)CC3)c2n1 [Compound 9, N-((1-Isopropyl-1H-pyrazol-4-yl)methyl)-1-(2-(6-methoxy-1,5-naphthyridin-4-yl)ethyl)piperidin-4-amine]		101 ± 6.82%	0.25 µg/mL (≈ 0.612 µM)			0.25 µg/mL (≈ 0.612 µM)	1 µg/mL (≈ 2.45 µM)		7550 µg/mL (≈ 18500 µM)	2.95 ± 0.56 µM	0.31 µM	0.125 µg/mL	1 µg/mL (≈ 2.45 µM)	4 µg/mL (≈ 9.79 µM)	2 µg/mL (≈ 4.9 µM)	1 µg/mL (≈ 2.45 µM)	2 µg/mL (≈ 4.9 µM)	1 µg/mL (≈ 2.45 µM)	0.5 µg/mL (≈ 1.22 µM)	0.25	solubility at pH 6.8 in words [10]: soluble at this pH in any conceivable single-dose
C=CCn1cc(CNC2CCN(CCc3ccnc4ccc(OC)nc34)CC2)cn1 [Compound 10, N-((1-Allyl-1H-pyrazol-4-yl)methyl)-1-(2-(6-methoxy-1,5-naphthyridin-4-yl)ethyl)piperidin-4-amine]		95.7 ± 6.42%	≤ 1 µg/mL			2 µg/mL (≈ 4.92 µM)	4 µg/mL (≈ 9.84 µM)		5700 µg/mL (≈ 14000 µM)	16.7 ± 0.93 µM	4.92 µM	2 µg/mL	4 µg/mL (≈ 9.84 µM)	8 µg/mL (≈ 19.7 µM)	4 µg/mL (≈ 9.84 µM)	4 µg/mL (≈ 9.84 µM)	32 µg/mL (≈ 78.7 µM)	8 µg/mL (≈ 19.7 µM)	8 µg/mL (≈ 19.7 µM)	0.22	solubility at pH 6.8 in words [10]: soluble at this pH in any conceivable single-dose
COc1ccc2nccc(CCN3CCC(NCc4ccccc4)CC3)c2n1 [Compound 11]		97 ± 9.58%	8 µg/mL (≈ 21.2 µM)			8 µg/mL (≈ 21.2 µM)	8 µg/mL (≈ 21.2 µM)		1370 µg/mL (≈ 3640 µM)	40.6 ± 1.97 µM	10.6 µM	4 µg/mL	8 µg/mL (≈ 21.2 µM)	32 µg/mL (≈ 85 µM)	32 µg/mL (≈ 85 µM)	8 µg/mL (≈ 21.2 µM)	64 µg/mL (≈ 170 µM)	16 µg/mL (≈ 42.5 µM)	32 µg/mL (≈ 85 µM)	0.21	
